Data as given in patent US20200121801A1, “DRUG DELIVERY CONJUGATES CONTAINING UNNATURAL AMINO ACIDS AND METHODS FOR USING” (priority 2012, published 2020).
pIC50: −log10 of the molar value.

Key:
[1] = Relative whole animal toxicity in folate deficient rats; assay type: in vivo; conditions: 3 μmol/kg i.v. BIW, 2 weeks
Procedure: EXAMPLE. […] Test compounds are administered i.v. at equivalent doses to folate deficient rats.

[2] = Plasma stability / free drug release after s.c. dose (EC1496 vs EC0746); assay type: in vivo, rats; conditions: 500 nmol/kg s.c.
Procedure: METHOD. Human serum stability. Compounds described herein are tested in human serum for stability using conventional protocols and methods. Briefly, test compound is administered to the test animal, such as by subcutaneous injection. The plasma concentration of the conjugate, and optionally one or more metabolites, is monitored over time. The results are graphed to determine Cmax, Tmax, half-life, and AUC for the test compound and metabolites.
EXAMPLE. […] EC1495 and EC0746 (comparator compound) are each administered at 500 nmol/kg by subcutaneous injection. The plasma concentration of the conjugate and the metabolites (aminopterin and aminopterin hydrazide) are monitored over time. […] As also shown in the following table, free drug is released as the parent aminopterin and the hydrazide derivative (EC0470).

[3] = test system: experimental autoimmune encephalomyelitis; assay: Autoimmune encephalomyelitis (EAE) model; assay type: in vivo, rats; conditions: when dosed alone
Procedure: METHOD. Autoimmune Encephalomyelitis (EAE) Model. EAE is induced in rats by immunization against 25 μg of guinea pig myelin basic protein (MBP) formulated with CFA containing 1 mg of grounded Mycobacterium tuberculosis H37Ra. Pertussis toxin is given intraperitoneally (1 μg/rat) to enhance the organ-specific autoimmunity. Starting 8 days after induction, rats are divided into […]: (1) untreated control (n=8), (2) test compound (n=7), and (3) test compound plus competitor compound (n=7), such as EC0923 competition. All treatments start on day 8 after EAE induction. The animals in the EAE control group are left untreated. […] The clinical severity of EAE is monitored on a daily basis and graded on a scale of 0 to 5 per animal. The clinical signs of ascending paralysis of EAE rats are divided into a 0-5 scale: 0=No disease, 0.5=distal limp tail, 1=limp tail, 2=mild paraparesis; ataxia-weakened hind limbs, 3=moderate paraparesis; hind limbs paresis, 4=complete hind limb paralysis, 5=complete hind limb paralysis and incontinence (euthanasia). On day 16, the animals are euthanized and brain and spinal cords are fixed in formalin for histology.

[4] = Cytotoxicity of unconjugated tubulysins to cells in culture; assay type: cell-based; conditions: cells in culture (cell line not given); read-out: typical IC50, cytotoxic to cells in culture
[5] = test system: KB tumors; assay: Inhibition of tumor growth, s.c. KB tumors in nu/nu mice; assay type: in vivo; conditions: 1.0 μmol/kg (only 2 doses due to toxicity), TIW, 2 weeks
Procedure: METHOD. Inhibition of Tumor Growth in Mice. […] For tumor cell inoculation, 1×10^6 M109 cells (a syngeneic lung carcinoma) in Balb/c strain, or 1×10^6 KB cells in nu/nu strain, in 100 μL are injected in the subcutis of the dorsal medial area (right axilla).
METHOD. Toxicity as Measured by Weight Loss. The percentage weight change of the test animals is determined on selected days post-tumor inoculation (PTI), and during dosing. The results are graphed.

[6] = Pharmacokinetic biodistribution of 3H-EC1669 and 3H-methotrexate; assay type: in vivo, Balb/c mice
Procedure: METHOD. Pharmacokinetic biodistribution. Studies in this section included a minimum of 3 test animals (mice) per time point. The pharmacokinetic biodistribution of test compound, such as ^3H-EC1669 (label on the drug), compared to positive control, such as ^3H-methotrexate (^3H-MTX), is observed in female Balb/c mice on folate-deficient diet. Compounds are administered as a single subcutaneous (SC) injection at 500 nmol/kg. Whole blood (>300 μL) along with ˜100 mg each of various tissues of interests are collected at various time points (such as 10 min, 30 min, 1 h, 2 h, 4 h, 8 h, 12 h, 24 h, and 72 h). The blood samples are placed in BD microtainer tubes (heparin) and centrifuged (4,000 g×3 min, 4° C.) to separate plasma (>100 μL). The remaining red blood cell (RBC) mass is washed 2× with phosphate buffered saline (PBS, pH 7.4) to obtain RBCs. The collected tissues are weighed and processed to determine ^3H-EC1669 and ^3H-MTX distribution: plasma, RBC, heart, lung, liver (the smallest lobe), spleen, kidney (1), intestine (above cecum), fecal material (from colon), muscle, and brain.

[7] = Renal/hepatic secretion study; assay type: in vivo, mice; conditions: 24 h post-dose, s.c.
Procedure: In a subsequent renal/hepatic secretion study, mice are housed in metabolic cages with a 6-h fast before subcutaneous administration of ^3H-EC1669 or ^3H-MTX. At 24 h post-dose, ˜14% more radioactivity is found in the pooled urine of ^3H-EC1669 dosed animals than in ^3H-MTX dosed animals. In contrast, twice as much radioactivity was found in the pooled feces of ^3H-MTX dosed animals than in EC1669 dosed animals. […] MTX reportedly causes hepatotoxicity as a major side effect, especially after long-term use. Without being bound by theory, it is believed herein that the preferential renal clearance of the compounds described herein will lead to fewer side effects such as hepatotoxicity.

[8] = test system: KB-CR2000 (cisplatin resistant) tumors; assay: Cisplatin-resistant KB-CR2000 tumor model; assay type: in vivo, mice; conditions: cisplatin 3 mg/kg twice per week, 2 weeks
[9] = 10 min post-dose, 500 nmol/kg s.c.

Question: Which results are given for `N=c1[nH]c(N)nc2ncc(CNc3ccc(C(=O)N[C@@H](CCC(=O)NNC(=O)OCCSSC[C@@H](NC(=O)[C@H](CCC(=O)NC[C@H](O)[C@@H](O)[C@H](O)[C@H](O)CO)NC(=O)[C@@H](CCC(=O)O)NC(=O)[C@H](CCC(=O)NC[C@H](O)[C@@H](O)[C@H](O)[C@H](O)CO)NC(=O)[C@@H](CCC(=O)O)NC(=O)[C@H](CCC(=O)NC[C@H](O)[C@@H](O)[C@H](O)[C@H](O)CO)NC(=O)CC[C@@H](NC(=O)c4ccc(NCc5cnc6nc(N)[nH]c(=O)c6n5)cc4)C(=O)O)C(=O)O)C(=O)O)cc3)nc12` [EC1496]?
Answer: toxicity relative to comparative example EC0746 [1]: less toxic; Cmax of conjugate, comparison [2]: higher Cmax than EC0746; half-life, comparison with EC0746 [2]: shorter half-life; Free drug released (%): AMT ([2]; plasma): 5.13%; Free drug released (%): AMT-hydrazide (EC0470) ([2]; plasma): 3.15%; Free drug released (%): Total ([2]; plasma): 8.28%; treatment-related weight loss [3]: not observed

Question: With `CCCC(=O)OCN(C(=O)[C@@H](NC(=O)[C@H]1CCCCN1C)C(C)CC)[C@H](C[C@@H](OC(C)=O)c1nc(C(=O)N[C@@H](Cc2ccc(O)cc2)C[C@H](C)C(=O)NN)cs1)C(C)C` (some centres unmarked) [TubB-H, reference compound] as the compound, how does the pIC50 [4] read?
Answer: The pIC50 was about 9.00.

Question: What about the CR [5] of the same compound?
Answer: Its CR is 0%.

Question: What about the Cures [5] of the same compound?
Answer: Its Cures is 0%.

Question: And the PR [5]?
Answer: The PR was 0%.

Question: And the “Toxicity: Avg. Weight Loss” value [5]?
Answer: Its value is over 15%.

Question: What about the “Toxicity: Deaths” value [5] of the same compound?
Answer: The value was 20%.

Question: With `N=c1[nH]c(N)nc2ncc(CNc3ccc(C(=O)N[C@@H](CCC(=O)NNC(=O)OCCSSC[C@@H](NC(=O)[C@H](CCC(=O)NC[C@H](O)[C@@H](O)[C@H](O)[C@H](O)CO)NC(=O)[C@@H](CCC(=O)O)NC(=O)[C@H](CCC(=O)NC[C@H](O)[C@@H](O)[C@H](O)[C@H](O)CO)NC(=O)[C@@H](CCC(=O)O)NC(=O)[C@H](CCC(=O)NC[C@H](O)[C@@H](O)[C@H](O)[C@H](O)CO)NC(=O)CC[C@H](NC(=O)c4ccc(NCc5cnc6nc(N)[nH]c(=O)c6n5)cc4)C(=O)O)C(=O)O)C(=O)O)cc3)nc12` [^3H-EC1669] as the compound, how does the tissue uptake at 10 min ([6]; female, Balb/c, mouse, plasma, sc, total radioactivity, 10 min post-dose, 500 nmol/kg s.c., read-out: found in the plasma) read?
Answer: The tissue uptake at 10 min was 12 %ID/g.

Question: What about the “more radioactivity in pooled urine than in 3H-MTX dosed animals” value [7] of the same compound?
Answer: Its value is about 14%.

Question: With `CN(Cc1cnc2nc(N)nc(N)c2n1)c1ccc(C(=O)N[C@@H](CCC(=O)O)C(=O)O)cc1` [^3H-MTX, ^3H-methotrexate] as the compound, how does the “captured by the liver” value [6, 9] read?
Answer: The value was 31 % ID/g.

Question: What about the “found in the plasma” value [6, 9] of the same compound?
Answer: Its value is 5.2 % ID/g.

Question: What about the “retention in RBCs, spleen, liver, intestine, and feces” value ([6]; entire sampling period) of the same compound?
Answer: The value was “consistently higher than that of ^3H-EC1669”.

Question: And the “radioactivity in pooled feces vs EC1669 dosed animals” value [7]?
Answer: The value was “twice as much”.

Question: For `N.N.[Cl][Pt][Cl]` [cisplatin, reference compound], which “partial response (PR)” value [8] is on record?
Answer: Its value is “did not produce even a single partial response”.
